Among the data in ChEMBL document CHEMBL1150980, “Potent inhibitors of neutral endopeptidase. 2-Biphenyl- methylglutaric acid amide derivatives” (Bioorg Med Chem Lett, 1996) are IC50 values, retold here.

Where only a bound is given, the exact number is not on record here.

The first experiment addresses T1, Neprilysin (Rattus norvegicus, UniProt P07861).
T1 sequence (P07861 whole entry): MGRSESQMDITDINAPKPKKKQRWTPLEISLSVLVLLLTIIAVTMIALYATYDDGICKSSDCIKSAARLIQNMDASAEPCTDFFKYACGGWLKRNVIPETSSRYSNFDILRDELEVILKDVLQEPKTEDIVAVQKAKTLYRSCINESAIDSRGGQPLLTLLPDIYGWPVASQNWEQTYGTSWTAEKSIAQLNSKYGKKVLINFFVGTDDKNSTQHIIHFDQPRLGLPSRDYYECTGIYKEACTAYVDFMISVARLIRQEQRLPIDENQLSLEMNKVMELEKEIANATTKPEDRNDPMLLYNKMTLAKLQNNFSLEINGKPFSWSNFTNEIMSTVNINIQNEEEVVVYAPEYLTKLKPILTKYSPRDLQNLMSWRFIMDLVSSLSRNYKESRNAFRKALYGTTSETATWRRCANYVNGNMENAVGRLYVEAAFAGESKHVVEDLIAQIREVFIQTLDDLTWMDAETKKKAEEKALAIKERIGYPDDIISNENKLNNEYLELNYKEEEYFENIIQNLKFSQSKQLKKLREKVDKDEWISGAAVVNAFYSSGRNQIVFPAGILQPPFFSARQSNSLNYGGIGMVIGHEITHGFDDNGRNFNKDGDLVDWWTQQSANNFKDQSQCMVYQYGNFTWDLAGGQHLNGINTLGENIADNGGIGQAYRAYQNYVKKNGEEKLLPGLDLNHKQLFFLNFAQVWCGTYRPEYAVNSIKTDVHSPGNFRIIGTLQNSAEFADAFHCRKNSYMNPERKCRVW
Kind of experiment: In vitro inhibition of neutral endopeptidase from rat kidney.
With `COCCOCC(CC(Cc1ccccc1)C(=O)NCC(=O)O)C(=O)O` (single isomer, unassigned; isomer B), inhibition was half-maximal at 945 nM (IC50). Regarding `CCC/C=C(/C[C@@H](Cc1ccc(-n2cccn2)cc1)C(=O)NCC(=O)O)C(=O)O`, the IC50 (in general, the concentration needed to halve the response being measured) is over 1000 nM. Same read-out and setting: then `CC(NC(=O)[C@H](Cc1ccc(-c2ccccc2)cc1)CC(COc1ccccc1)C(=O)O)C(=O)O` (stereo in doubt), with 2.8 nM; and `O=C(O)CNC(=O)[C@@H](C[C@H](COc1ccccc1)C(=O)O)Oc1ccc(-c2ccccc2)cc1`, with over 1000 nM.

Compound `O=C(O)CC[C@@H](Cc1ccc(-c2ccccc2)cc1)C(=O)NCC(=O)O` returned an IC50 of 2.3 nM. That is a single-digit nanomolar value. The same measure, in the same setting: then `O=C(O)C(COc1ccccc1)C[C@@H](Cc1ccc(-c2ccccc2)cc1)C(=O)N1CCCC1C(=O)O` (stereo in doubt), with over 1000 nM; and `CC(CC(Cc1ncc(-c2ccccc2)cn1)C(=O)NCC(=O)O)C(=O)O` (stereo not given), with over 1000 nM; and `O=C(O)CNC(=O)C(Cc1ccccc1)CC(COc1ccccc1)C(=O)O` (single isomer, unassigned; isomer B), with 407 nM.

`O=C(O)CNC(=O)[C@H](Cc1ccc(-c2ccccc2)cc1)C[C@@H](COc1ccccc1)C(=O)O` gave an IC50 of 3.2 nM. Same read-out and setting: in the case of `O=C(O)C(COc1ccccc1)C[C@@H](Cc1ccc(-c2ccccc2)cc1)C(=O)N1CCCC1C(=O)O` (single isomer, unassigned; isomer B) it was over 1000 nM.

On to `O=C(O)CNC(=O)[C@H](Cc1ccc(-c2ccccc2)cc1)CC(COc1ccccc1)C(=O)O` (single isomer, unassigned; isomer A), for which 3.2 nM corresponded to half-maximal inhibition (IC50). Take `C[C@@H](NC(=O)[C@H](Cc1ccc(-c2ccccc2)cc1)CC(COc1ccccc1)C(=O)O)C(=O)O` (stereo in doubt; form 2): the IC50 stood at 8.7 nM. Against the preceding compound, the IC50 is about 2.7-fold higher. Still for that read-out and setting: in the case of `O=C(O)CNC(=O)C(Cc1ccccc1)CC(COc1ccccc1)C(=O)O` (single isomer, unassigned; isomer A) it was over 1000 nM; in that of `CSCCC(NC(=O)[C@H](Cc1ccc(-c2ccccc2)cc1)CC(COc1ccccc1)C(=O)O)C(=O)O` (mixture of isomers), 101 nM.

Compound `O=C(O)CNC(=O)[C@H](Cc1ccc(-c2ccccc2)cc1)C[C@H](COc1ccccc1)C(=O)O` showed an IC50 of 5.9 nM. `CCCC[C@H](C[C@H](Cc1ccc(-n2cccn2)cc1)C(=O)NCC(=O)O)C(=O)O` yielded an IC50 of 366 nM. For the compound `C[C@@H](NC(=O)[C@H](Cc1ccc(-c2ccccc2)cc1)CC(COc1ccccc1)C(=O)O)C(=O)O` (stereo in doubt; form 1), the IC50 is 13 nM. This IC50 lies about 28-fold lower than the previous one.

For `CC(NC(=O)[C@H](Cc1ccc(-c2ccccc2)cc1)CC(COc1ccccc1)C(=O)O)C(=O)O` (mixture of isomers), the midpoint of inhibition, the IC50, lay at 20 nM. For `COCCOCC(CC(Cc1ccccc1)C(=O)NCC(=O)O)C(=O)O` (single isomer, unassigned; isomer A), the IC50 was over 1000 nM.

Another experiment deals with T1, Neprilysin. Put plainly: In vitro inhibitory activity against neutral endopeptidase (NEP) from rat kidney.
Compound `O=C(O)CNC(=O)[C@H](Cc1ccc(-c2ccccc2)cc1)CC(COc1ccccc1)C(=O)O` (stereo not given in full) returned a half-maximal inhibitory concentration (IC50) of 5.9 nM. This lies in the single-digit nanomolar range.
